Assay results as given in ChEMBL document CHEMBL4229420, “ROCK inhibitors 2. Improving potency, selectivity and solubility through the application of rationally designed solubilizing groups” (Bioorg Med Chem Lett, 2018).
≈ marks a conversion by molar mass, not a printed value.

Assay: Solubility of the compound in pH 7.4 phosphate buffer
Assay type: physicochemical
[1] = phosphate buffer, read-out: solubility

Row | solubility [1] [µM] | solubility (buffer) [µM] | SMILES
1 | 22 (≈ 7.16 µg/mL) |  | COc1cccc(CC(=O)Nc2nc(-c3ccncc3)cs2)c1
2 | > 200 |  | CN1CCC(CCCOc2cccc(CC(=O)Nc3nc(-c4ccncc4)cs3)c2)CC1
3 | > 200 |  | O=C(Cc1cccc(OCCN2CCNCC2)c1)Nc1nc(-c2ccncc2)cs1
4 |  | > 200 | CN1CCN(CCCOc2cccc(CC(=O)Nc3nc(-c4ccncc4)cs3)c2)CC1
5 | > 200 |  | O=C(Cc1cccc(OCCCN2CCOCC2)c1)Nc1nc(-c2ccncc2)cs1
6 | > 200 |  | CN1CCN(CCOc2cccc(CC(=O)Nc3nc(-c4ccncc4)cs3)c2)CC1
7 | > 200 |  | O=C(Cc1cccc(OCCN2CCCCC2)c1)Nc1nc(-c2ccncc2)cs1
8 | > 200 |  | O=C(Cc1cccc(OCCCN2CCNCC2)c1)Nc1nc(-c2ccncc2)cs1
9 | > 200 |  | O=C(Cc1cccc(OCCN2CCOCC2)c1)Nc1nc(-c2ccncc2)cs1
10 | > 200 |  | O=C(Cc1cccc(OCCCN2CCCCC2)c1)Nc1nc(-c2ccncc2)cs1
11 |  | > 200 | O=C(Cc1cccc(OCCCC2CCNCC2)c1)Nc1nc(-c2ccncc2)cs1
